Columns and labels:
[1] = target: T1, murine NOD1 (Mus musculus, UniProt Q8BHB0); test: NOD1 functional agonist assay, 293mNOD1-SEAP reporter cells; format: cell-based; conditions: 293mNOD1 cells, OD above 3*O.D of negative control
T1 construct: expressed in transfected cells; host or cells: HEK293
T1 sequence (Q8BHB0 1-953): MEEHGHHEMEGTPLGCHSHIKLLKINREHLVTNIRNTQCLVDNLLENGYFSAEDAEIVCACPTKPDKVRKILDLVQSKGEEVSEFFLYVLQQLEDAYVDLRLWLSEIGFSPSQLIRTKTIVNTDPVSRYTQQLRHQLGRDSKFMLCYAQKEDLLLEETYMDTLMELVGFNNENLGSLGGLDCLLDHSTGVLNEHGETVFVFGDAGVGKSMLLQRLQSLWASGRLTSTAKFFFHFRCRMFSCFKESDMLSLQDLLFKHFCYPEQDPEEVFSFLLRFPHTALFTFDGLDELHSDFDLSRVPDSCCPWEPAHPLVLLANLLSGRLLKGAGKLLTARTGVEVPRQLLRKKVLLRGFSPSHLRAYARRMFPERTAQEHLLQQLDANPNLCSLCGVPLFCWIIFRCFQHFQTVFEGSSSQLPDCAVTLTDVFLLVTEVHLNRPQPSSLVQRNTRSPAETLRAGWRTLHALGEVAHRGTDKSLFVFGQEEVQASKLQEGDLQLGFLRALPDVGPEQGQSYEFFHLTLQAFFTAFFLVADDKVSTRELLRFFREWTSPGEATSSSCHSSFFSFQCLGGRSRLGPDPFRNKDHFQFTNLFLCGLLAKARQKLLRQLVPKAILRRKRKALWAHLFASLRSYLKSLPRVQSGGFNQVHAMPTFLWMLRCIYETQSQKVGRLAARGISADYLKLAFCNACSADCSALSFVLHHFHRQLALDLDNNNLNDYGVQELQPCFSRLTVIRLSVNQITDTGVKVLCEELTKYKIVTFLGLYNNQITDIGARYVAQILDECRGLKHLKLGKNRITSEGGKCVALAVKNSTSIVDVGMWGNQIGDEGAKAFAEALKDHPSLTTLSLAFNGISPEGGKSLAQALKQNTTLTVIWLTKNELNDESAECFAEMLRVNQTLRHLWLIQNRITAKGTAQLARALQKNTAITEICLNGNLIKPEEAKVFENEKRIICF
Description: (§1) HEK293 cells were stably transfected with plasmid for the overexpression of the NOD1 genes and a reporter plasmid expressing a secreted embryonic alkaline phosphatase (SEAP) gene under the control of a promoter inducible by the transcription factors NF-κB and AP-1. These cells are referred herein as 293hNOD1-SEAP (for cells overexpressing the human NOD1 gene) and 293mNOD1-SEAP (for cells overexpressing the murine NOD1 gene). Upon NOD1 stimulation, these cells induce the activation of NF-κB and AP-1 and subsequently the secretion of SEAP. The reporter protein is easily detectable and measurable when using QUANTI-Blue™ (InvivoGen, San Diego, Calif.), a medium that turns purple/blue in the presence of SEAP.
(§2) The biological activity of the compounds of the invention tested using 293hNOD1 and 293mNOD1 cells. SEAP expression was measured using the commercially available SEAP detection kit (HEK-Blue™ Detection, InvivoGen). The SEAP activity in cells was quantified using the microplate reader (FLUOStar OPTIMA, BMG laboratories), the absorbance values were read using filter with excitation at 620 nm and emission at 655 nm. The results provided in Table 2 were expressed as the concentration were a significant mean optical density (OD) can be observed (above 3*O.D of negative control). As a positive control, the NOD1 pathway was stimulated with commercially available iE-DAP (InvivoGen) and C12-iE-DAP (an acylated derivative of DAP; InvivoGen). As a negative control endotoxin-free water was used. Additionally, 293 cells expressing the SEAP gene but not the NOD1 gene were used as a control.

[2] = target: T2, human NOD1 (Homo sapiens, UniProt Q9Y239); test: NOD1 functional agonist assay, 293hNOD1-SEAP reporter cells; format: cell-based; conditions: 293hNOD1 cells, OD above 3*O.D of negative control
T2 construct: expressed in transfected cells; host or cells: HEK293
T2 sequence (Q9Y239 1-953): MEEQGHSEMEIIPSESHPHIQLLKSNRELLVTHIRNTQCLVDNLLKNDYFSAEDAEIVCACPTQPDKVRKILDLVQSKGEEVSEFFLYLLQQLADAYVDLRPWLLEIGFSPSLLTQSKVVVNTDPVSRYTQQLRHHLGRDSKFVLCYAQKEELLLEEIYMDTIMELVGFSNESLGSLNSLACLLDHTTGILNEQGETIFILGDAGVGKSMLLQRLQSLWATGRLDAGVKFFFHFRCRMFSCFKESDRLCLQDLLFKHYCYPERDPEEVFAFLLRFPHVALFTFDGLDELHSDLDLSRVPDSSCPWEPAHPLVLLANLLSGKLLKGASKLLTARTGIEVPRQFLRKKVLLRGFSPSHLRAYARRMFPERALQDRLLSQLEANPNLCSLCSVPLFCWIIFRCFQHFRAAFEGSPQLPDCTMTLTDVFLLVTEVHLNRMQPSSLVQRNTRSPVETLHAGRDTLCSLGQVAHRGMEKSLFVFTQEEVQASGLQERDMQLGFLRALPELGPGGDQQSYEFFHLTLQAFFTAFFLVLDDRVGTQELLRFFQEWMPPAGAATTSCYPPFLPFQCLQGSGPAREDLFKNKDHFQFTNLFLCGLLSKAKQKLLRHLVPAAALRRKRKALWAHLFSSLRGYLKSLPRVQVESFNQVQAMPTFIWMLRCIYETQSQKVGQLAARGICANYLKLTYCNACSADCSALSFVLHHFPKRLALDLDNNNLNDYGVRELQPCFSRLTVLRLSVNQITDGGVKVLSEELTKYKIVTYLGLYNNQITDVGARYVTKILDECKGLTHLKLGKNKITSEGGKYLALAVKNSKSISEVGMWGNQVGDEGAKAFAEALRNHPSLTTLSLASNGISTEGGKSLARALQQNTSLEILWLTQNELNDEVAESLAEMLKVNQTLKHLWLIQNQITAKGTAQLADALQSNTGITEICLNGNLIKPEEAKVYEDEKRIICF
Description: as §1, §2

Structure (SMILES)	mNod1: concentration where a significant mean optical density (OD) can be observed [1] [µg/mL]	hNod1: concentration where a significant mean optical density (OD) can be observed [2] [µg/mL]
C[C@H](N)C(=O)N[C@H](CCC(=O)N[C@H](CSC[C@H](N)C(=O)O)C(=O)N[C@H](C)C(=O)O)C(=O)O [Example 18, N^2-(L-alanyl)-N^5-((S)-3-(((R)-2-amino-2-carboxyethyl)thio)-1-(((R)-1-carboxyethyl)amino)-1-oxopropan-2-yl)-D-glutamine]	1	1
CCCCCCC(=O)N[C@@H](C)C(=O)N[C@H](CCC(=O)N[C@H](CSC[C@H](N)C(=O)O)C(=O)N[C@H](C)C(=O)O)C(=O)O [Example 19, N^5-((S)-3-(((R)-2-amino-2-carboxyethyl)thio)-1-(((R)-1-carboxyethyl)amino)-1-oxopropan-2-yl)-N^2-(heptanoyl-L-alanyl)-D-glutamine]	0.1	0.1
CCCCCCCCCCCC(=O)N[C@@H](C)C(=O)N[C@H](CCC(=O)N[C@H](CSC[C@H](N)C(=O)O)C(=O)N[C@H](C)C(=O)O)C(=O)O [Example 20, N^5-((S)-3-(((R)-2-amino-2-carboxyethyl)thio)-1-(((R)-1-carboxyethyl)amino)-1-oxopropan-2-yl)-N^2-(dodecanoyl-L-alanyl)-D-glutamine]	0.01	0.01
CCCCCCCCCCCCCC(=O)N[C@@H](C)C(=O)N[C@H](CCC(=O)N[C@H](CSC[C@H](N)C(=O)O)C(=O)N[C@H](C)C(=O)O)C(=O)O [Example 21, N^5-((S)-3-(((R)-2-amino-2-carboxyethyl)thio)-1-(((R)-1-carboxyethyl)amino)-1-oxopropan-2-yl)-N^2-(tetradecanoyl-L-alanyl)-D-glutamine]	0.001	0.01
N[C@H](CCC(=O)N[C@H](CSC[C@H](N)C(=O)O)C(=O)NCC(=O)O)C(=O)O [Example 22, N^5-((S)-3-(((R)-2-amino-2-carboxyethyl)thio)-1-((carboxymethyl)amino)-1-oxopropan-2-yl)-D-glutamine]	10	1
CCCCCCC(=O)N[C@H](CCC(=O)N[C@H](CSC[C@H](N)C(=O)O)C(=O)NCC(=O)O)C(=O)O [Example 23, N^5-((S)-3-(((R)-2-amino-2-carboxyethyl)thio)-1-((carboxymethyl)amino)-1-oxopropan-2-yl)-N^2-heptanoyl-D-glutamine]	1	1

The next lines start with the values.

mNod1: concentration where a significant mean optical density (OD) can be observed [1] [µg/mL]	hNod1: concentration where a significant mean optical density (OD) can be observed [2] [µg/mL]	Structure (SMILES)
0.01	0.01	CCCCCCCCCCCC(=O)N[C@H](CCC(=O)N[C@H](CSC[C@H](N)C(=O)O)C(=O)NCC(=O)O)C(=O)O [Example 24, N^5-((S)-3-(((R)-2-amino-2-carboxyethyl)thio)-1-((carboxymethyl)amino)-1-oxopropan-2-yl)-N^2-dodecanoyl-D-glutamine]
0.01	0.01	CCCCCCCCCCCCCC(=O)N[C@H](CCC(=O)N[C@H](CSC[C@H](N)C(=O)O)C(=O)NCC(=O)O)C(=O)O [Example 25, N^5-((S)-3-(((R)-2-amino-2-carboxyethyl)thio)-1-((carboxymethyl)amino)-1-oxopropan-2-yl)-N^2-tetradecanoyl-D-glutamine]
0.1	10	C[C@H](N)C(=O)N[C@H](CCC(=O)N[C@H](CSC[C@H](N)C(=O)O)C(=O)NCC(=O)O)C(=O)O [Example 26, N^2-(L-alanyl)-N^5-((S)-3-(((R)-2-amino-2-carboxyethyl)thio)-1-((carboxymethyl)amino)-1-oxopropan-2-yl)-D-glutamine]

Source: patent US20170210778A1, “NOVEL COMPOUNDS” (The Provost, Fellows, Foundation Scholars, and the other …, priority 2014, published 2017)
